These results are taken from PMC5268383, “Inhibition of STAT3 by Anticancer Drug Bendamustine” (PLoS ONE, 2017).

For this assay, the target named is T1, recombinant human STAT3 SH2 domain (Homo sapiens, UniProt P40763).
T1 construct: Full-length cDNAs were obtained from a human cDNA library by PCR; Avi-tag (biotinylated in BirA-BL21) (N); made in house; host or cells: Escherichia coli BirA-BL21
Briefly: AlphaScreen SH2 binding assay, STAT3. How it is done: AlphaScreen assays were performed in a final reaction volume of 25 μL of the assay buffer, containing 10 mM HEPES-NaOH (pH 7.4), 50 mM NaCl, 1 mM EDTA (pH 8.0), 0.1% NP-40, and 10 ng/mL BSA in a 96-well microtiter plate at 25°C. The labeled Phospho-Tyr (pTyr) peptide probe was 5-carboxyfluorescein (FITC)-GpYLPQTV for STAT3, FITC-GpYDKPHVL for STAT1, and FITC-PSpYVNVQN for Grb2. A DMSO solution of BENDA was incubated with 50 nM of each SH2-containing protein for 15 min, 50 nM of the corresponding FITC-pTyr peptide was added, and the mixture was incubated for 90 min. Streptavidin-coated donor beads and anti-FITC acceptor beads were added and incubated for 90 min before the signals were measured with an Envision Xcite plate reader (PerkinElmer Life Sciences, Waltham, MA, USA).

“Also recorded” adds a separate entry of the source.

T1 sequence (P40763 whole entry, the tested form may be a part): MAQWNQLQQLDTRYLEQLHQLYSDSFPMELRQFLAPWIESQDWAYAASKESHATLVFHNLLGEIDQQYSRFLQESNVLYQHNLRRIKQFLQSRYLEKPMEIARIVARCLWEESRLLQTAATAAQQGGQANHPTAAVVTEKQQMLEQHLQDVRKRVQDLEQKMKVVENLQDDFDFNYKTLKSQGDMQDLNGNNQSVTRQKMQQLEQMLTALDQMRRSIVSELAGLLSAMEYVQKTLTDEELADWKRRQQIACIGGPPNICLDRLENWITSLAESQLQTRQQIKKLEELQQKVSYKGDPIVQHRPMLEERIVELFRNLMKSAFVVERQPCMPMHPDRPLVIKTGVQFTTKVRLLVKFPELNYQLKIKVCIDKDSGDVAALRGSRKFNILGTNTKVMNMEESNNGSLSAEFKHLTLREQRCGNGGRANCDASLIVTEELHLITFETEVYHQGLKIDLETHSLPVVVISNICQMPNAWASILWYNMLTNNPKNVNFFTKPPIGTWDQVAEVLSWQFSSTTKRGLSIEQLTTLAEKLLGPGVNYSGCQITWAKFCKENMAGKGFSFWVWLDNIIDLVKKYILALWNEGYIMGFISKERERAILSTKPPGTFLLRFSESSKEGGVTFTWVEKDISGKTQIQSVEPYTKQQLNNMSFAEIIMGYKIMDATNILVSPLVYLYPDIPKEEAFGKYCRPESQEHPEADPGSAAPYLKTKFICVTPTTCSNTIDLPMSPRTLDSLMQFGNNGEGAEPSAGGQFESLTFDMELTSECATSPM

As for `Cn1c(CCCC(=O)O)nc2cc(N(CCCl)CCCl)ccc21` [BENDA, 4-{5-[bis(2-chloroethyl)amino]-1-methyl-2-benzimidazolyl} butyric acid], the IC50 stood at 7.4 µM. Moreover, the “SH2 binding inhibition in presence of 2-mercaptoethanol” value (200 μM (0.2 mM) 2-mercaptoethanol, data not shown) is recorded as “did not inhibit; also recorded: wholly inactivated”. The “SH2 inhibitory activity in presence of excess L-cysteine” value (200 μM (0.2 mM) L-cysteine added to assay mixture) is recorded as “attenuated; also recorded: wholly inactivated”.

What is called IC50 is the concentration at which inhibition is half-maximal.
